For assay [1], the target named is Cannabinoid receptor 1 (Homo sapiens, UniProt P21554). Briefly: Displacement of [3H]CP55,940 from human recombinant CB1 receptor expressed in HEK293 cell membranes after 90 mins. On the technique in general: In a radioligand displacement assay an active substance lowers the binding of a labelled ligand.
Assay [2] has as its target T1, Cannabinoid receptor 2 (Homo sapiens, UniProt P34972). Briefly: Displacement of [3H]CP55,940 from human recombinant CB2 receptor expressed in HEK293 cell membranes after 90 mins.
The subject of assay [3] is HEK293. In words: Selectivity index, ratio of Ki for human recombinant CB1 receptor expressed in HEK293 cell membranes to Ki for human recombinant CB2 receptor expressed in HEK293 cell membranes. The format is cell-based.
In assay [4] the target is T1, Cannabinoid receptor 2. Briefly: Antagonist activity at human CB2 receptor expressed in CHO cell membranes assessed as inhibition of HU-210-induced [35S]GTPgammaS binding. The format is functional.
Assay [5] concerns the target T1, Cannabinoid receptor 2. In words: Activity at human CB2 receptor expressed in CHO cell membranes by [35S]GTPgammaS binding assay. The format is functional.
Assay [6] has as its target T1, Cannabinoid receptor 2. In words: Agonist activity at human CB2 receptor expressed in CHO cell membranes by [35S]GTPgammaS binding assay. The format is functional. (In general: Binding of GTPγS marks nucleotide exchange on a G protein.)
For assay [7], the target named is Cannabinoid receptor 1 (Rattus norvegicus) (UniProt P20272). Briefly: Agonist activity at CB1 receptor in rat cerebellar membranes at < 10 uM by [35S]GTPgammaS binding assay. The note with it: Cerebellum, Membrane. The format is functional, cell membranes.
Cannabinoid receptor 1 (Rattus norvegicus), sequence (P20272 whole entry): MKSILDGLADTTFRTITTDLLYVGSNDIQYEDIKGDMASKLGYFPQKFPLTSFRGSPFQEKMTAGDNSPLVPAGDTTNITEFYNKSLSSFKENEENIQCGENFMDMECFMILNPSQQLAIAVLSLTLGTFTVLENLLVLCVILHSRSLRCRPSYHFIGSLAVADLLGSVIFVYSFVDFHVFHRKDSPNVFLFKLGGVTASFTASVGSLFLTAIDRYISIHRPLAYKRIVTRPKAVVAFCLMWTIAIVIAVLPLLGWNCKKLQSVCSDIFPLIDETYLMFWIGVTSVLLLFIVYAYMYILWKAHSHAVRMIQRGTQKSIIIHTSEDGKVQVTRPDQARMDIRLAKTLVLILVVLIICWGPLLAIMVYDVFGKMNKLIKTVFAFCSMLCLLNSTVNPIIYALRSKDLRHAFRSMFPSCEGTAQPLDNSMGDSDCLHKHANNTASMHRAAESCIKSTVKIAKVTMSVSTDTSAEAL
For assay [8] the target is unchanged. In words: Antagonist activity at CB1 receptor in rat cerebellar membranes assessed as inhibition of HU-210-induced [35S]GTPgammaS binding at 10 uM. The conditions noted are these: Cerebellum, Membrane. The format is functional, cell membranes.
Assay [9] has as its target T1, Cannabinoid receptor 2. Briefly: Neutral antagonist activity at human CB2 receptor expressed in CHO membranes assessed as inhibition of inverse agonist SR144528-induced responses by [35S]GTPgammaS binding assay. The format is functional, cell membranes.
For assay [10], the target named is T1, Cannabinoid receptor 2. In words: Neutral antagonist activity at human CB2 receptor expressed in CHO membranes assessed as inhibition of agonist HU-210-induced responses by [35S]GTPgammaS binding assay. The format is functional, cell membranes.
Assay [11] addresses T1, Cannabinoid receptor 2. In words: Competitive antagonist activity at human CB2 receptor expressed in CHO membranes assessed as inhibition of HU-210-induced [35S]GTPgammaS binding by Schild-plot. The format is functional, cell membranes. The conditions noted are these: read-out: pA2 (converted).

The source made the active and inactive calls. The rule behind the calls is not given here.

Cannabinoid receptor 1, sequence (P21554 whole entry): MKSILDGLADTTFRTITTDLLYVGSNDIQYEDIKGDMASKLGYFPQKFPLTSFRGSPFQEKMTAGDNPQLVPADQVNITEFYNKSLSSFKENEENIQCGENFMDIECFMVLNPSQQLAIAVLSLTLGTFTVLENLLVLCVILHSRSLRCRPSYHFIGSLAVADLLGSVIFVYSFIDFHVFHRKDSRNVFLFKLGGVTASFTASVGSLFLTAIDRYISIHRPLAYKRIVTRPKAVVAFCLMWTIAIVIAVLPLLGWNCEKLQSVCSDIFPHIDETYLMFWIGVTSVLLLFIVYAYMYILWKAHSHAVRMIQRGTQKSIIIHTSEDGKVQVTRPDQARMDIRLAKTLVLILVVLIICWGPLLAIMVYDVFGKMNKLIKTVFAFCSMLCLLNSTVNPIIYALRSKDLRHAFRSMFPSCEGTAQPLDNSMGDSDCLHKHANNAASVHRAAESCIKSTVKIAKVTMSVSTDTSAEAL
T1 sequence (P34972 whole entry): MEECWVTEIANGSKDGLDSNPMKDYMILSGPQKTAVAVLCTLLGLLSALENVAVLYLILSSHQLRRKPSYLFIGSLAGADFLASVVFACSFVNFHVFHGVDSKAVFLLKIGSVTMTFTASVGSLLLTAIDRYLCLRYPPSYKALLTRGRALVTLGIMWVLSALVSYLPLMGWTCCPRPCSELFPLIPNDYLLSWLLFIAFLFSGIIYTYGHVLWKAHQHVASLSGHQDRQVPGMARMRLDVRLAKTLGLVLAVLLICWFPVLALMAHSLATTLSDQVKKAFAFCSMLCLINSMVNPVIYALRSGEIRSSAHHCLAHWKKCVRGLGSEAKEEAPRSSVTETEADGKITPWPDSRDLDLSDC

Take `COc1c(C)cc(-c2ccccc2)cc1C(=O)N[C@H]1CC[C@H](C)CC1`: the Ki (usually the dissociation constant of the complex between target and ligand, obtained from inhibition or displacement) in assay [1] came to 1530 nM; in assay [2], 90 nM. The Ratio Ki in assay [3] is 17.
`CCCCc1cc(-c2ccc(OC)cc2)cc(C(=O)N[C@H]2CC[C@@H](C)CC2)c1OC`: the figures for the Ki in [1] and in assay [2] were 1550 nM and 22 nM, respectively. In addition, the Ratio Ki in assay [3] was determined as 70. Moreover, in assay [4], the inhibition result is “Active”. Also, in assay [5], the result was inactive.
Regarding `COc1ccc(-c2cc(C)c(OC)c(C(=O)N[C@H]3CC[C@H](C)CC3)c2)cc1`, the Ki in assay [1] and in [2] was above 10000 nM throughout.
Turning to `COc1c(C)cc(-c2ccc(F)cc2)cc1C(=O)NC1CCCCCC1`, the results for the Ki in [1] and in assay [2] were 160 nM and 60 nM, respectively. Besides, the Ratio Ki in [3] is 2.67. Also, in assay [6], the midpoint of the response, the EC50, lay at 398 nM. Also, the result in assay [7] was inactive. The inhibition result in [8] was “Active”.
For `COc1ccc(-c2cc(C)c(OC)c(C(=O)N[C@H]3CC[C@@H](C)CC3)c2)cc1`, the inhibition constant (Ki) in assay [1] and in assay [2] was above 10000 nM in each case.
For the compound `CCCCc1cc(-c2ccc(OC)cc2)cc(C(=O)NC2CCCCCC2)c1OC`, the inhibition constant Ki was 1490 nM in [1] and 11.5 nM in [2]. In assay [3], the Ratio Ki worked out at 130. Further, the inhibition entry in assay [4] is “Active”. The outcome in [5] was inactive. The inhibition result in assay [9] and in assay [10] was “Dose-dependent effect” each time. In addition, in assay [11], the Kb is 794 nM.
On to `COc1c(C)cc(-c2ccc(F)cc2)cc1C(=O)N[C@H]1CC[C@H](C)CC1`, for which the inhibition constant Ki in assay [1] was 620 nM; in assay [2], 90 nM. In addition, the Ratio Ki in [3] was found to be 6.89.
Consider `COc1ccc(-c2cc(C)c(OC)c(C(=O)NC3CCCCCC3)c2)cc1`, for which the Ki in assay [1] and in assay [2] was above 10000 nM in each case.
As to `CCCC(C)(C)c1ccc2c(c1)OC(C)(C)[C@@H]1CC=C(C)C[C@@H]21`, in [3], the Ratio Ki is 226.
As to `COc1c(C)cc(-c2ccc(F)cc2)cc1C(=O)N[C@H]1CC[C@@H](C)CC1`, the Ki in [1] was 180 nM; in assay [2] it was 60 nM. Moreover, in assay [3], the Ratio Ki worked out at 3. The EC50 (in general, the concentration at which the effect is half-maximal) in [6] was 398 nM. Moreover, the result in assay [7] was inactive. Moreover, the inhibition entry in [8] was “Active”.
`CCCCc1cc(-c2ccc(OC)cc2)cc(C(=O)N[C@H]2CC[C@H](C)CC2)c1OC`: the inhibition constant (Ki) in assay [1] turned out to be 2290 nM; in assay [2] it was 143 nM. For the same compound, in assay [3], the Ratio Ki amounted to 16. Also, the inhibition entry in [4] is “Active”. Moreover, the outcome in assay [5] was inactive.
As to `COc1c(C)cc(-c2ccccc2)cc1C(=O)NC1CCCCCC1`, the inhibitory constant (Ki) turned out to be 870 nM in assay [1] and 100 nM in [2]. For the same compound, the Ratio Ki in [3] is 8.7.
`COc1c(C)cc(-c2ccccc2)cc1C(=O)N[C@H]1CC[C@@H](C)CC1`: the values for the Ki in [1] and in assay [2] were 1090 nM and 150 nM, respectively. For the same compound, the Ratio Ki in assay [3] worked out at 7.27.

The record behind these values is ChEMBL document CHEMBL3397007, “Synthesis, biological activity and molecular modeling of new biphenylic carboxamides as potent and selective CB2 receptor ligands” (Eur J Med Chem, 2015).
